ChEMBL document CHEMBL3352658 (Eur J Med Chem, 2014)

Legend:
Tumor necrosis factor [1] = biological target: T1, Tumor necrosis factor (Homo sapiens, UniProt P01375); assay: Inhibition of recombinant human TNFalpha binding to TNF receptor 1-ECD at 100 uM by surface plasmon resonance-based in vitro competitive binding assay
Tumor necrosis factor [2] = biological target: T1, Tumor necrosis factor; assay: Inhibition of TNFalpha in HEK293T cells transfected with plasmid hRluc/TK/ luc2P/NF-kBRE/Hygro plasmid after 12 hrs by Dual-glo luciferase assay system; format: cell-based, HEK-293T
Tumor necrosis factor [3] = biological target: T1, Tumor necrosis factor; assay: Inhibition of TNFalpha (unknown origin) assessed as IkappaB-alpha phosphorylation in Hela cells after 15 mins by ELISA; format: cell-based
Tumor necrosis factor [4] = biological target: T1, Tumor necrosis factor; assay: Inhibition of TNFalpha in HEK293T cells transfected with plasmid hRluc/TK/ luc2P/NF-kBRE/Hygro plasmid at 30 uM after 12 hrs by Dual-glo luciferase assay system; format: cell-based; details: HEK-293T
Tumor necrosis factor [5] = biological target: T1, Tumor necrosis factor; assay: Inhibition of TNFalpha in HEK293T cells transfected with plasmid hRluc/TK/ luc2P/NF-kBRE/Hygro plasmid at 90 uM after 12 hrs by Dual-glo luciferase assay system; format: cell-based; details: HEK-293T

T1 sequence (P01375 whole entry, the tested form may be a part): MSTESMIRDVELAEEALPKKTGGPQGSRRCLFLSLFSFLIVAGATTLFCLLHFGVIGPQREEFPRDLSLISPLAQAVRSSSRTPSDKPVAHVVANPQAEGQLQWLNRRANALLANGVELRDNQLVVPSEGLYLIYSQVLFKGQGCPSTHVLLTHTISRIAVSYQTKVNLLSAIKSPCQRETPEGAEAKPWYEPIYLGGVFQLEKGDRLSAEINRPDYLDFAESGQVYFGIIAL

Row | SMILES | inhibition (Tumor necrosis factor [1]) [%] | also measured
1 | COc1ccc(C2Nc3ccccc3-c3nnc(SCc4ccccc4Cl)nc3O2)cc1C (stereo not drawn) | 32 | 
2 | O=C(O)CCCNS(=O)(=O)c1ccc2c3c(cccc13)C(=O)N2 |  | IC50 (Tumor necrosis factor [2]; hek-293t): Not Active
3 | O=C1Nc2ccc(S(=O)(=O)Nc3ccc(O)c(Cl)c3)c3cccc1c23 | 28 | IC50 (Tumor necrosis factor [3]): 45.7 µM; IC50 (Tumor necrosis factor [2]; read-out: IC50): 42.3 µM
4 | CCc1nnc(NC(=O)CSc2nnc(-c3ccc([N+](=O)[O-])cc3)n2-c2ccc(C)cc2)s1 | 35 | 
5 | O=S(=O)(Nc1ccc(O)c(Cl)c1)c1ccc(F)cc1 | 31 | IC50 (Tumor necrosis factor [2]; read-out: IC50): > 100 µM; inhibition (Tumor necrosis factor [4]): 30%
6 | CC(=O)Oc1ccc(C)cc1N1C(=O)c2cccc([N+](=O)[O-])c2C1=O | 68 | 
7 | Cc1ccc(C(=O)C2=C(O)C(=O)N(c3cccc(C(F)(F)F)c3)C2c2ccccc2[N+](=O)[O-])cc1 (stereo not drawn) | 26 | 
8 | N#CC1=C(N)Oc2n[nH]c(-c3ccccc3)c2C1c1ccc(OCC(N)=O)cc1 (stereo not drawn) | 20 | 
9 | Cc1cccc(/N=C2/NC(=O)/C(=C/c3cc(C)n(-c4cc(C(=O)O)cc(C(=O)O)c4)c3C)S2)c1C | 32 | 
10 | CCOc1cc(/C=C2\C(=O)Nc3ccc(Br)cc32)cc(Cl)c1O | 24 | inhibition (Tumor necrosis factor [5]): 40%
11 | COC(=O)[C@@](NNc1ccc(C)c(C)c1)(NC(=O)c1ccc(Cl)cc1Cl)C(F)(F)F | 17 | 
12 | O=S(=O)(Nc1cc(Cl)c(O)c(Cl)c1)c1ccc2ccccc2c1 | 37 | IC50 (Tumor necrosis factor [2]; read-out: IC50): > 100 µM; inhibition (Tumor necrosis factor [4]): 30%
13 | O=C1Sc2c(S(=O)(=O)Nc3ccc(O)cc3)cc(S(=O)(=O)Nc3ccc(O)cc3)c3cccc1c23 | 52 | IC50 (Tumor necrosis factor [3]): 25.3 µM; IC50 (Tumor necrosis factor [2]; read-out: IC50): 14 µM
14 | CCOc1cc(C2NC(=O)NC(c3ccccc3)=C2C(C)=O)c(Br)c(Br)c1OCC(N)=O (stereo not drawn) | 16 | 
